# Results taken from publication PMC4519791, “Functional diversity and properties of multiple xylanases from Penicillium oxalicum GZ-2” (Scientific Reports, 2015).
# What was measured:
# Assay type in all cases: biochemical
# xyn10A = target: T1, xyn10A (Penicillium oxalicum, UniProt U3N115); experiment: TLC of hydrolysis products; settings: 1 mg/ml substrate, 12 h; 50 mM acetate pH 4.0, 40 °C (Figure 7 legend) or optimal pH, 45 °C (Methods)
# T1 construct: mature enzyme, GH10 catalytic domain without CBM; pPICZalphaA alpha-factor secretion, 6xHis tag, Pichia pastoris, Ni-NTA
# T1 sequence (U3N115 20-330): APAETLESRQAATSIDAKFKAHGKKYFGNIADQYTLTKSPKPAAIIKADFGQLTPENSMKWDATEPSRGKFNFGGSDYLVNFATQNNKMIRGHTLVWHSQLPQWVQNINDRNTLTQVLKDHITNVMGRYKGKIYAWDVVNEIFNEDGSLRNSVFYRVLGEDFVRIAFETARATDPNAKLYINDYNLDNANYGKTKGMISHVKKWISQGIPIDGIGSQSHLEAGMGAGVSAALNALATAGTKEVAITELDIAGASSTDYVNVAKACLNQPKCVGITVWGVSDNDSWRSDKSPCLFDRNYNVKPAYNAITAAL
# xyn10B = target: T2, xyn10B (Penicillium oxalicum, UniProt U3MZ77); experiment: p-nitrophenyl substrate hydrolysis (specific activity); settings: 10 mM substrate; optimal temperature, pH 5.0
# T2 construct: mature enzyme, GH10 catalytic domain, Ser/Thr linker and CBM1; pPICZalphaA alpha-factor secretion, 6xHis tag, Pichia pastoris, Ni-NTA
# T2 sequence (U3MZ77 23-410): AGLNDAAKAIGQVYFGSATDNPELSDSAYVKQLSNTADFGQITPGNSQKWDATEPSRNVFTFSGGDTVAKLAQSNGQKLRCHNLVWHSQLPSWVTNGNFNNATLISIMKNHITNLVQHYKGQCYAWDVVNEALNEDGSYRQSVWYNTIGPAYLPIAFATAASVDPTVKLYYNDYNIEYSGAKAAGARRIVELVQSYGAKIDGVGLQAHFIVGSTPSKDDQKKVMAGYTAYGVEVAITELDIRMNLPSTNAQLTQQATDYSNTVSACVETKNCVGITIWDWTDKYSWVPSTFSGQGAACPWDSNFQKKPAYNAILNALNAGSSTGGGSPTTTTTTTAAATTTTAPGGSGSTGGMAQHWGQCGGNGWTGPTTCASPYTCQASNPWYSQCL
# xyn11B = target: T3, xyn11B (Penicillium oxalicum, UniProt E7EF85); experiment: TLC of hydrolysis products; settings: 1 mg/ml substrate, 12 h; 50 mM acetate pH 4.0, 40 °C (Figure 7 legend) or optimal pH, 45 °C (Methods)
# T3 construct: gene xynB; mature enzyme, GH11 catalytic domain, Ser/Thr linker and CBM1; pPICZalphaA alpha-factor secretion, 6xHis tag, Pichia pastoris, Ni-NTA
# T3 sequence (E7EF85 20-310): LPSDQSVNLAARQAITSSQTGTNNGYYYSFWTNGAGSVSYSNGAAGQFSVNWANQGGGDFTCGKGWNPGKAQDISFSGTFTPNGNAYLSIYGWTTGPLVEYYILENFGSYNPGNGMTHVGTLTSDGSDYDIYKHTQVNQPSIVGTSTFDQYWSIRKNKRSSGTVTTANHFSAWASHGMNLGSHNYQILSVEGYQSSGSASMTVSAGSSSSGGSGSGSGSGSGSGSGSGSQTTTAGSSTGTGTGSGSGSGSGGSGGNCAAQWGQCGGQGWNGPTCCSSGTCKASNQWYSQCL
# xyn11A = target: T4, xyn11A (Penicillium oxalicum, UniProt U3MZH8); experiment: TLC of hydrolysis products; settings: 1 mg/ml substrate, 12 h; 50 mM acetate pH 4.0, 40 °C (Figure 7 legend) or optimal pH, 45 °C (Methods)
# T4 construct: GH11 catalytic domain without CBM; 23 kDa by SDS-PAGE; pPICZalphaA alpha-factor secretion, 6xHis tag, Pichia pastoris, Ni-NTA
# T4 sequence (U3MZH8 17-211): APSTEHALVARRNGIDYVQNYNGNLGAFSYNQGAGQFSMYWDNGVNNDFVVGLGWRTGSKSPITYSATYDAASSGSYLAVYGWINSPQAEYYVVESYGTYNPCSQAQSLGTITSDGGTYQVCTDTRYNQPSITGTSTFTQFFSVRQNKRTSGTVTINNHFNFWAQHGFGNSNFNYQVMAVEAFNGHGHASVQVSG
Structure (SMILES),TLC of hydrolysis products (xyn10A),p-nitrophenyl substrate hydrolysis (specific activity) (xyn10B),TLC of hydrolysis products (xyn11B),TLC of hydrolysis products (xyn11A)
"OC1OC[C@@H](O[C@@H]2OC[C@@H](O[C@@H]3OC[C@@H](O)[C@H](O)[C@H]3O)[C@H](O)[C@H]2O)[C@H](O)[C@H]1O (some centres unmarked) [X3, xylotriose]","the two GH10 enzymes rapidly degraded X3, X4, X5 and X6",,,
"O=[N+]([O-])c1ccc(O[C@@H]2OC[C@@H](O)[C@H](O)[C@H]2O)cc1 [pNPX, p-nitrophenyl-β-D-xylopyranoside]",,"Although xyn10B degraded pNPX and pNPC, the other three enzymes were not active",,
"OC1CO[C@@H](OC2CO[C@@H](OC3CO[C@@H](OC4CO[C@@H](OC5CO[C@@H](OC6COC(O)C(O)C6O)C(O)C5O)C(O)C4O)C(O)C3O)C(O)C2O)C(O)C1O (some centres unmarked) [X6, xylohexaose]","the two GH10 enzymes rapidly degraded X3, X4, X5 and X6",,hydrolytic products obtained with GH11 xylanase (xyn11B) was similar to that of xyn11A,"X4, X5 and X6 were hydrolyzed to X2 and X3 through xyn11A"
"OC1OC[C@@H](O[C@@H]2OC[C@@H](O[C@@H]3OC[C@@H](O[C@@H]4OC[C@@H](O)[C@H](O)[C@H]4O)[C@H](O)[C@H]3O)[C@H](O)[C@H]2O)[C@H](O)[C@H]1O (some centres unmarked) [X4, xylotetraose]",,,hydrolytic products obtained with GH11 xylanase (xyn11B) was similar to that of xyn11A,"X4, X5 and X6 were hydrolyzed to X2 and X3 through xyn11A"
"O=[N+]([O-])c1ccc(O[C@@H]2O[C@H](CO)[C@@H](O[C@@H]3O[C@H](CO)[C@@H](O)[C@H](O)[C@H]3O)[C@H](O)[C@H]2O)cc1 [pNPC, p-nitrophenyl β-D-cellobioside]",,"Although xyn10B degraded pNPX and pNPC, the other three enzymes were not active",,
